# System: T18A TCR
# Test: Surface plasmon resonance (SPR) binding of T18A TCR to peptide/HLA-B*81:01 complexes
# Settings: result in words
# Description: The SPR assays were performed as described earlier ([40]–[42]). Briefly, the protein was buffer -exchanged into PBS and biotinylated for 1h at room temperature. […] The Kd was determined by the fitting of a single-ligand binding model.
row,Substance,recognition of TL9 escape variant presented by HLA-B*81:01 by T18A TCR
1,"TPQDLNsML [TL9 escape variant, Ser at position 7, presented by HLA-B*81:01]",could recognize
2,"TPsDLNTML [TL9 escape variant, Ser at position 3, presented by HLA-B*81:01]",could recognize
